Data on six compounds can be found in US20080085889A1, “Amidomethyl-Substituted 1-(Carboxyalkyl) Cyclopentyl-Carbonylamino-Benzazepine-N-Acetic Acid Compounds, Process and Intermediate Products for Their Preparation and Pharmaceutical Compositions Containing Them” (SOLVAY PHARMACEUTICALS GmbH, priority 2003, published 2008).

Series [1] has as its system formation of ET-1 from Big-ET-1. Description: In vivo inhibition of the Big-ET-1-induced blood pressure increase in anaesthetised rats, i.v. single dose. Also on record: species or system Rats (Sprague-Dawley). Conditions: Rattus norvegicus, iv, 5 min before 0.5 nmol/kg Big-ET-1, negative values indicate inhibition, read-out: % substance-related inhibition of the maximum Big-ET effect on SAP vs. control; for change in vivo at 10 µmol/kg: 10 μmol/kg; for change in vivo at 3 µmol/kg: 3 μmol/kg. From the text: 3. In Vivo Investigation of the Inhibitory Action of the Substances on the Formation of ET-1 from Big-ET-1 in Rats
ET-1 is an endogenous substance with strong vasoconstrictive effect. An increase in the ET-1 level results in an increase in blood pressure. Upon infusion of Big-ET-1, an increase in blood pressure takes place to the extent that ET-1 is produced therefrom by enzyme-catalysed cleavage of Big-ET-1. As a measurement of the enzyme-inhibiting action of the substances, their inhibitory action on the increase in blood pressure induced by infusion of Big-ET-1 was determined.
Rats (Sprague-Dawley, CRLD=Charles River) were anaesthetised with 1 ml/kg Rompun/Ketavet 1:1. A pressure transducer (Statham) was inserted into the carotid artery to measure blood pressure. One jugular vein was cannulated for administering the substance, and the other for administering Big-ET-1. After a 20-minute equilibration phase, the rats were administered the corresponding test substance of Formula I at a dose of as a rule 10 μmol/kg (if not stated otherwise), or a vehicle. Five minutes later, 0.5 nmol/kg Big-ET-1 was infused over a period of one minute. The systolic (SAP=systolic arterial pressure) and the diastolic (DAP=diastolic arterial pressure) blood pressure and the heart rate were each measured before administration of the substance, then immediately before administration of Big-ET and in each case every five minutes over a period of 30 minutes after Big-ET administration using the pressure transducer in known manner. The maximum Big-ET-induced increase in blood pressure and the maximum lowering of heart rate were calculated from the measured values as the difference between the value measured at the moment of maximum development of the Big-ET action (typically after 5 min.) and the value measured before Big-ET infusion. Furthermore, the integral of the blood pressure curve under the influence of Big-ET-1 was determined over 30 minutes (AUC=area under the curve).
The percentage inhibition of the maximum Big-ET-1 effect on the systolic arterial blood pressure (SAP) after i.v. administration of the test substances compared with administration of a vehicle is set forth in the following Table 3a:
Data given in table 3a as negative values indicate an inhibitory effect.

Series [2] relates to maximal SAP response to Big-ET. Put plainly: In vivo i.v. potency (ID50) to inhibit maximal SAP response to Big-ET in anesthetized rats. Also on record: species or system Rats (Sprague-Dawley). The following applies: Rattus norvegicus, iv, dose at which the pressor effect of Big-ET was suppressed by 50%. As for the experimental part:
Rats (Sprague-Dawley, CRLD=Charles River) were anaesthetised with 1 ml/kg Rompun/Ketavet 1:1. A pressure transducer (Statham) was inserted into the carotid artery to measure blood pressure.
For intravenous testing, one jugular vein was cannulated for administering the substance, and the other for administering Big-ET-1. […] Five minutes later, 0.5 nmol/kg Big-ET-1 was infused over a period of one minute. SAP, DAP, and heart rate were measured before administration of the substance, then before administration of Big-ET, and subsequently every five minutes after Big-ET administration over a period of 30 minutes using the pressure transducer in known manner. The maximum Big-ET-induced increase in blood pressure was calculated from the measured values as the difference between the value measured at the moment of maximum development of the Big-ET action (typically after 5 min) and the value measured before Big-ET infusion. The dose at which the pressor effect of Big-ET was suppressed by 50% (ID50) was estimated from the inhibitory effects observed over the range of dosages tested (n>5 rats for each dose).
The intravenous potency of the test compounds of Formula I (given as ID50 values) to inhibit the maximal SAP response to Big ET in anesthetized rats is set forth in the following Table 3b: […]

Series [3] concerns the target T1, soluble, human recombinant NEP (Homo sapiens, UniProt P08473).
T1 construct: soluble, human recombinant NEP; purchased Prof; Crine, University of Montreal, Canada
Description: In-vitro investigation of the NEP inhibitory action (fluorescence-quenched Big-ET-1 analogue, HPLC). It counts as biochemical. On the procedure:
1. In-Vitro Investigation of the NEP Inhibitory Action of the Substances
In this test, the measure of the inhibitory activity of the substances which was determined was their IC50 value. The IC50 value of a test substance having enzyme-inhibitory activity is that concentration of the test substance at which 50% of the enzymatic activity of the NEP is blocked.
70 μl test buffer, 10 μl enzyme working solution and 10 μl test substance solution were mixed in an Eppendorf vessel and preincubated at 37° C. for 15 minutes (=min.). Then 10 μl substrate stock solution was added and the test batch was incubated for 60 minutes at 37° C. The enzymatic reaction was then ended by 5-minutes' heating to 95° C. After centrifugation (Heraeus Biofuge B, 3 min.), the liquid supernatant was investigated by HPLC in accordance with the following specifications.
The substrate was separated from cleavage products by means of reversed-phase HPLC (CC 125/4 Nucleosil 300/5 C18 RP column with CC 8/4 Nucleosil 100/5 C18 precolumn, from Macherey-Nagel, Düren, Germany). For this, 60 μl of the test mixture was injected into the HPLC sample injection point and the column was then eluted at a flow rate of 1 ml/min with the following gradient:
Mobile Phase B: 100% acetonitrile+0.5M H3PO4
All the peptides were detected by absorption at 214 nm and by fluorescence with an excitation wavelength of 328 nm and an emission wavelength of 393 nm.
Upon enzymatic cleavage of the peptide, the fluorophore (=Mca) and the quencher end up in different peptide fragments, which reduces the effectiveness of the quench. […] The increasing fluorescence signal (corresponds to the area, A) of the HPLC peak of the peptide with the non-quenched Mca fluorophore is used for the further calculations. This signal was compared for samples with (=Ainhib) and without (=Acontrol) test substance of Formula I, and the value “% inhibition” was calculated on the basis of the respective peak areas according to the following formula: % inhibition=100*(1−Ainhib/Acontrol)
All the samples were measured in duplicates and average values were calculated therefrom. A standard inhibitor (10 nM thiorphan) and a solvent control (0.1% DMSO) were likewise measured as quality controls on each run. In this test model the test substances of Formula I listed in the following Table 1 had the IC50 values given below: […]

Series [4] deals with T2, His6-tagged hSEP ectodomain (Homo sapiens, UniProt Q495T6).
T2 construct: His6-tagged hSEP ectodomain; His6; purchased Innogenetics, Ghent, Belgium
T2 sequence (Q495T6 49-779 limits assumed): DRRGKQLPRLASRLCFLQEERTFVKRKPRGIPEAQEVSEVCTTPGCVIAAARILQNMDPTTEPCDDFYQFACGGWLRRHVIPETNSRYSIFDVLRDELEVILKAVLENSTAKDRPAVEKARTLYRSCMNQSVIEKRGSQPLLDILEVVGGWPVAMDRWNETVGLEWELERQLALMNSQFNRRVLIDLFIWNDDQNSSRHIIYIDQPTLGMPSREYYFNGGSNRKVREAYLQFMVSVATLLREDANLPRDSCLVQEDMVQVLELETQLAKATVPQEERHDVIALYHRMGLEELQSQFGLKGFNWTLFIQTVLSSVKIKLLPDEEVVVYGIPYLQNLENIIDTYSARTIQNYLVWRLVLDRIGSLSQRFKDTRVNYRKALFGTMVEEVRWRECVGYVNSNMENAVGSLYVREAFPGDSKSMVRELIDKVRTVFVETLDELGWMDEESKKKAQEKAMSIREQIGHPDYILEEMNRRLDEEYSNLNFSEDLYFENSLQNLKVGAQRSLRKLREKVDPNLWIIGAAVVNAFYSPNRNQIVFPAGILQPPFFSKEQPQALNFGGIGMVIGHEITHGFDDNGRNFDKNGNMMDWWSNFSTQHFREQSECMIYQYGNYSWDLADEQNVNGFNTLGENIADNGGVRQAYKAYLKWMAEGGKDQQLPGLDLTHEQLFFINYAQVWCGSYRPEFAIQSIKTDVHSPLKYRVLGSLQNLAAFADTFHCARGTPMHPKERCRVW
Description: In vitro investigation of the hSEP-inhibitory action (fluorescence-quenched Big-ET-1 analogue, HPLC). It counts as biochemical. As for the experimental part: 2. In Vitro Investigation of the hSEP-Inhibitory Action of the Substances
In this test, the measure of the inhibitory activity of the substances which was determined was their IC50 value. The IC50 value of a test substance having enzyme-inhibitory activity is that concentration of the test substance at which 50% of the enzymatic activity of the hSEP is blocked.
The test and the HPLC procedure were carried out analogously to the manner set forth above for determining the in vitro inhibitory action of the test substances on NEP. 10 nM phosphoramidon served as standard inhibitor in the HPLC procedure. In this test model the test substances of Formula I listed in the following Table 2 had the IC50 values given below: […]

For series [5], the system named is TUNEL positive cells in heart, liver and kidney. Description: Adriamycin toxicity: determination of anti-apoptotic activity (TUNEL staining). The following applies: adriamycin alone, 3 x 5 mg/kg i.p. (cumulative 15 mg/kg), vehicle minipump; day 5; ± SEM. The series is classed as in vivo, Wistar rats. On the procedure:
2. Adriamycin Toxicity: Determination of Anti-Apoptotic Activity
Wistar rats, weighing 200-250 g, were anesthetized with chloral hydrate, 400 mg/kg, and Alzet osmotic minipumps (2 ML1), were implanted subcutaneously (=s.c.). The pumps had been filled with either vehicle or solution containing compounds of the invention at the appropriate concentration and primed prior to implantation. Animals subsequently received adriamycin at three equal daily doses of 5 mg/kg i.p. on days 1, 2 and 3. Rats were euthanized 5 days after the first injection of adriamycin and transcardially perfused with a solution containing 4% paraformaldehyde in phosphate buffer. The heart, liver and kidneys were subsequently removed and embedded in parafin.
TUNEL staining: For terminal deoxynucleotide transferase-mediated dUTP nick end-label (TUNEL) based histological analysis, organs were post-fixed for 5 days at 4° C. and paraffin-embedded. TUNEL staining was performed on 10 μm thick paraffin sections using the ApopTag Peroxidase kit (S 7100, Oncor Appligene, Heidelberg, Germany) according to the manufacturer's instructions. Briefly, after pretreatment with proteinase K and quenching of endogenous peroxidase, sections were incubated in equilibration buffer followed by working strength TdT enzyme (incorporating digoxigenin labeled dUTP nucleotides to free 3′-OH DNA termini), (1 hr, 37° C.). Sections were incubated in stop/wash buffer (30 min, 37° C.), then with anti-digoxigenin-peroxidase conjugate (30 min) followed by DAB substrate (Sigma, Deisenhofen, Germany) and lightly counterstained with methylgreen.
Wistar rats were administered adriamycin at the cumulative dose of 15 mg/kg i.p. The test substance of Example 4 was administered s.c. at the doses of 20, 50 or 100 mg/kg and day by means of Alzet osmotic minipumps over 5 days. Animals were euthanized and transcardially perfused 5 days after the first injection of adriamycin and the heart, kidney and liver were processed for TUNEL staining. Densities of TUNEL positive cells were determined as described in the methods. Results for each organ (heart, liver, kidney) were measured as mean densities of TUNEL positive cells ±SEM for the control groups and the different test groups (20, 50 or 100 mg/kg and day of test compound of Example 4) and listed in table 8 below.
Comparisons between groups were performed by means of Student's t test (**P<0.01; ***P<0.001 compared to vehicle treated rats).

As usually defined, the ED50 is the midpoint of the dose-response relation. Low values mean greater potency, high ones weaker potency. As usually defined, the IC50 is the concentration at which inhibition is half-maximal.

T1 sequence (P08473 52-750 limits assumed): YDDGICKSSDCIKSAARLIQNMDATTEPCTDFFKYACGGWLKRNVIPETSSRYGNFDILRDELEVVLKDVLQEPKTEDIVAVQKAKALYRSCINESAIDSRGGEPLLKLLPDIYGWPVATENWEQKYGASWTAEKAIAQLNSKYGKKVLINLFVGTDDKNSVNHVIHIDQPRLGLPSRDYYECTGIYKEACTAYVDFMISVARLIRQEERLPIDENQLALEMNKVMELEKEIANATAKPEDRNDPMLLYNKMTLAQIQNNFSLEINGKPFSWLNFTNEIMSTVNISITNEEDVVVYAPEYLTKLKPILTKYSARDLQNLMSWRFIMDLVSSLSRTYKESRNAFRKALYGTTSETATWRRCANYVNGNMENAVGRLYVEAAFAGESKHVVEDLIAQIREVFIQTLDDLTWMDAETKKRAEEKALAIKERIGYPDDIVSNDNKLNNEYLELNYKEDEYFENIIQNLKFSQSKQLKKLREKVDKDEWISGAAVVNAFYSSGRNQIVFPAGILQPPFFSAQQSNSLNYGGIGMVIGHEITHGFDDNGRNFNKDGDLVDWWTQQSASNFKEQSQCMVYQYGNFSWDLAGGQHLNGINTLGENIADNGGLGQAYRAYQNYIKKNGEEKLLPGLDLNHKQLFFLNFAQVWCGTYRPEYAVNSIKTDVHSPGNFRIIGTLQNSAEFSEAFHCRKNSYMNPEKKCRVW

Consider `CCOC(=O)C(CC(=O)NCCCO)CC1(C(=O)N[C@H]2CCc3ccccc3N(CC(=O)O)C2=O)CCCC1` (stereo in doubt) [Example 8], for which, in series [1], the change in vivo at 10 µmol/kg was -113%. The median effective dose (ED50) in series [2] is 0.2 µmol/kg.

Take `CNCCN(C)C(=O)CC(CC1(C(=O)NC2CCc3ccccc3N(CC(=O)O)C2=O)CCCC1)C(=O)O` (racemic) [Example 68, 2-{[1-({[1-(carboxymethyl)-2-oxo-2,3,4,5-tetrahydro-1H-1-benzazepin-3-yl]amino}carbonyl)cyclopentyl]methyl}-4-{methyl[2-(methylamino)ethyl]amino}-4-oxobutanoic acid]: in series [1], the change in vivo at 10 µmol/kg is -108%. In series [2], this compound had a median effective dose (ED50) of 0.7 µmol/kg.

As for `CN(CCCCN)C(=O)CC(CC1(C(=O)NC2CCc3ccccc3N(CC(=O)O)C2=O)CCCC1)C(=O)O` (racemic) [Example 75, 4-[(4-aminobutyl)(methyl)amino]-2-{[1-({[1-(carboxymethyl)-2-oxo-2,3,4,5-tetrahydro-1H-1-benzazepin-3-yl]amino}carbonyl)cyclopentyl]methyl}-4-oxobutanoic acid], the change in vivo at 3 µmol/kg in series [1] was -52%. The compound further displayed an ED50 in series [2] of 0.1 µmol/kg.

Consider `CCN(CCCN)C(=O)CC(CC1(C(=O)NC2CCc3ccccc3N(CC(=O)O)C2=O)CCCC1)C(=O)O` (racemic) [Example 67, 4-[(3-aminopropyl)(ethyl)amino]-2-{[1-({[1-(carboxymethyl)-2-oxo-2,3,4,5-tetrahydro-1H-1-benzazepin-3-yl]amino}carbonyl)cyclopentyl]methyl}-4-oxobutanoic acid], for which the IC50 in series [3] turned out to be 15 nM; in series [4], 12 nM. The change in vivo at 10 µmol/kg in series [1] is -109%. Further, in series [2], it took a dose of 0.5 µmol/kg to reach the 50% effect level (ED50).

Turning to `COc1cccc2c1C(=O)c1c(O)c3c(c(O)c1C2=O)C[C@@](O)(C(=O)CO)C[C@@H]3O[C@H]1C[C@H](N)[C@H](O)[C@H](C)O1` [Adriamycin, adriamycin, reference compound], in series [5], the “TUNEL positive cells, Heart” value is 5.417 ± 0.146 cells/mm3 × 102; the “TUNEL positive cells, Kidney” value was 9.438 ± 0.198 cells/mm3 × 102; the “TUNEL positive cells, Liver” value is 10.420 ± 0.275 cells/mm3 × 102.

Turning to `CN(CCCCCN)C(=O)CC(CC1(C(=O)NC2CCc3ccccc3N(CC(=O)O)C2=O)CCCC1)C(=O)O` (racemic) [Example 78, 4-[(5-aminopentyl)(methyl)amino]-2-{[1-({[1-(carboxymethyl)-2-oxo-2,3,4,5-tetrahydro-1H-1-benzazepin-3-yl]amino}carbonyl)cyclopentyl]methyl}-4-oxobutanoic acid], the change in vivo at 3 µmol/kg in series [1] was -82%. The compound also had an ED50 in series [2] of under 1 µmol/kg.
